Data taken from US20230391729A1, “SUCCINATE SALTS OF N-(3-(4-(3-(DIISOBUTYLAMINO)PROPYL)PIPERAZIN-1-YL)PROPYL)-1H-BENZO[D]IMIDAZOL-2-AMINE, PREPARATION THEREOF AND USE OF THE SAME” (ALZPROTECT, priority 2020, published 2023).

Assays:
PGRN = assay: Extracellular progranulin quantification by ELISA after Aβ1-42 injury; type: cell-based, rat; conditions: Aβ1-42 injury 72 h; 10 nM
Protocol: Rat cortical neurons cultured with microglia were cultured as described by Callizot et al. in J Neurosci Res. 2013, 91: 706-716 with modifications to include microglial cells. Pregnant female rats (Rats Wistar; Janvier Labs France) of 15 days of gestation were killed, after a deep anesthesia with CO2, by cervical dislocation. Then, fetuses were collected and immediately placed in ice-cold L15 Leibovitz medium with a 2% penicillin (10,000 U/ml) and streptomycin (10 mg/ml) solution (PS) and 1% bovine serum albumin (BSA). Cortexes were treated for 20 min at 37° C. with a trypsin-EDTA solution at a final concentration of 0.05% trypsin and 0.02% EDTA. […] Viable cells were counted in a Neubauer cytometer, using the trypan blue exclusion test. […]
Cortical neurons were intoxicated with A3 solutions (see below) after 11 days of culture. […] This solution was gently agitated for 3 days at 37° C. in the dark and immediately used after being properly diluted in control medium to the concentrations used ([…] of Aβ1-42 preparation containing […] of Aβ oligomers (AβO) measured by WB). […]
Levels of PGRN in the culture medium were determined by ELISA (Progranulin (rat) ELISA lit, Adipogen, Coger) according to manufacturer's recommendations. […] Optical density (OD) was assessed by spectrophotometry at 450 nm wavelength with a Glomax apparatus (Promega). […]

[1] = Variable humidity XRPD (VH-XRPD); type: physicochemical; conditions: exposure to 90% RH for up to 1 hour and 30 minutes
Protocol: VH-XRPD analysis was carried out on a Philips X'Pert Pro Multipurpose diffractometer equipped with a humidity chamber. The samples were scanned between 4 and 35.99° 20 using Cu K radiation (α1 λ=1.54060 Å; α2=1.54443 Å; β=1.39225 Å; α1: α2 ratio=0.5) running in Bragg-Brentano geometry (step size 0.008 °2θ) using 40 kV/40 mA generator settings. Measurements were performed at 50%, 60%, 70%, 80%, 90%. The sample was held at 90% for an hour and 30 minutes. Measurements were taken at 30-minute intervals.

## N-(3-(4-(3-(diisobutylamino)propyl)piperazin-1-yl)propyl)-1H-benzo[d]imidazol-2-amine sesqui-succinate salt [sesqui-succinate salt Form 1]
PGRN
  levels of extracellular PGRN: significantly increased
[1]
  VH-XRPD crystalline form: no change to crystallinity or form
